Experimental data taken from patent US8299048B2, “Hexahydrocyclopentyl[f]indazole sulfonamides and derivatives thereof as selective glucocorticoid receptor modulators” (Merck Sharp & Dohme Corp., priority 2008, dated 2012).

These molecules were tested against T1, glucocorticoid receptor (Homo sapiens, UniProt P04150) (assay: Ligand binding assay (GR BIND)).
T1 construct: endogenous in cells
T1 sequence (P04150 1-777): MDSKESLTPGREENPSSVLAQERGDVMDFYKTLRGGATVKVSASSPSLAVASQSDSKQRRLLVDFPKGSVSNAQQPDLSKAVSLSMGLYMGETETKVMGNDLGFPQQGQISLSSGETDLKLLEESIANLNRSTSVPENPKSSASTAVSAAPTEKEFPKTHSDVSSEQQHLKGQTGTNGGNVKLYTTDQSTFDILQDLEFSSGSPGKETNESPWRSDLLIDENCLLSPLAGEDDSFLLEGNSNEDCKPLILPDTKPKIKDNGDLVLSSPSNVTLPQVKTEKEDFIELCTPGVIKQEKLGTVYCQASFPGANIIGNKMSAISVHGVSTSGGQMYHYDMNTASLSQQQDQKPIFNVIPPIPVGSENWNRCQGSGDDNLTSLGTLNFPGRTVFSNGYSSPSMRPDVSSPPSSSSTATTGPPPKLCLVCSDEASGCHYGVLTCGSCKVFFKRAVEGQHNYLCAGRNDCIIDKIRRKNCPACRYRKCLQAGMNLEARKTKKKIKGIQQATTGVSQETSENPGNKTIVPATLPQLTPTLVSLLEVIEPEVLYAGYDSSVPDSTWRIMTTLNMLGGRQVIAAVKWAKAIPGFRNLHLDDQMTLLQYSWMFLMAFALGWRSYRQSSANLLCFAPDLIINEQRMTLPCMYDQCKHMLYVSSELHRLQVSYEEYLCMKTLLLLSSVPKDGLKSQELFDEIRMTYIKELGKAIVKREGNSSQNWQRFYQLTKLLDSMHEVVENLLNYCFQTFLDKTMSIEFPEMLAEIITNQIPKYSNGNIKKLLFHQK
How it was run: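 Displacement of tritiated dexamethasone (6 nM trace solution) from receptor in cell supernatant was measured after overnight incubation at 4 °C in molybdate-containing TEGM, pH 7.2, 2% ethanol. Hydroxylapatite pulled down the receptor–ligand complex for filter washing and scintillation counting, with dexamethasone as reference.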

Structure (SMILES)	Ki
C[C@]12Cc3cnn(-c4ccc(F)cc4)c3C=C1CC[C@@H]2CN(CC(O)C(F)F)S(=O)(=O)CC(F)(F)F (stereo partly drawn) [Example 133, N-(3,3-difluoro-2-hydroxypropyl)-2,2,2-trifluoro-N-{[(4αR,5S)-1-(4-fluorophenyl)-4α-methyl-1,4,4α,5,6,7-hexahydrocyclopenta[f]indazol-5-yl]methyl}ethanesulfonamide]	0.8 nM
C[C@]12Cc3cnn(-c4ccc(F)cc4)c3C=C1CC[C@@H]2CN(CC(OS(=O)(=O)CC(F)(F)F)C(F)F)S(=O)(=O)CC(F)(F)F (stereo partly drawn) [Example 134, 2,2-difluoro-1-({{[(4αR,5S)-1-(4-fluorophenyl)-4α-methyl-1,4,4α,5,6,7-hexahydrocyclopenta[f]indazol-5-yl]methyl}[(2,2,2-trifluoroethyl)sulfonyl]amino}methyl)ethyl 2,2,2-trifluoroethanesulfonate]	1.8 nM
C[C@]12Cc3cnn(-c4ccc(F)cc4)c3C=C1CC[C@@H]2CN(CC1(O)CC1)S(=O)(=O)CC(F)(F)F [Example 135, 2,2,2-trifluoro-N-{[(4αR,5S)-1-(4-fluorophenyl)-4α-methyl-1,4,4α,5,6,7-hexahydrocyclopenta[f]indazol-5-yl]methyl}-N-[(1-hydroxycyclopropyl)methyl]ethanesulfonamide]	2.9 nM
C[C@]12Cc3cnn(-c4ccc(F)cc4)c3C=C1CC[C@@H]2CN(CC1(OS(=O)(=O)CC(F)(F)F)CC1)S(=O)(=O)CC(F)(F)F [Example 136, 1-({{[(4αR,5S)-1-(4-fluorophenyl)-4α-methyl-1,4,4α,5,6,7-hexahydrocyclopenta[f]indazol-5-yl]methyl}[(2,2,2-trifluoroethyl)sulfonyl]amino}methyl)cyclopropyl 2,2,2-trifluoroethanesulfonate]	2.5 nM
C[C@]12Cc3cnn(-c4ccccc4)c3C=C1CC[C@@H]2CN(CCc1ccccc1F)S(=O)(=O)CC(F)(F)F [Example 137, 2,2,2-trifluoro-N-[2-(2-fluorophenyl)ethyl]-N-{[(4αR,5S)-4α-methyl-1-phenyl-1,4,4α,5,6,7-hexahydrocyclopenta[f]indazol-5-yl]methyl}ethanesulfonamide]	0.9 nM
C[C@]12Cc3cnn(-c4ccccc4)c3C=C1CC[C@@H]2CN(CCc1ccccn1)S(=O)(=O)CC(F)(F)F [Example 138, 2,2,2-trifluoro-N-{[(4αR,5S)-4α-methyl-1-phenyl-1,4,4α,5,6,7-hexahydrocyclopenta[f]indazol-5-yl]methyl}-N-(2-pyridin-2-ylethyl)ethanesulfonamide]	1.2 nM
COc1ccccc1CCN(C[C@H]1CCC2=Cc3c(cnn3-c3ccccc3)C[C@@]21C)S(=O)(=O)CC(F)(F)F [Example 139, 2,2,2-trifluoro-N-[2-(2-methoxyphenyl)ethyl]-N-{[(4αR,5S)-4α-methyl-1-phenyl-1,4,4α,5,6,7-hexahydrocyclopenta[f]indazol-5-yl]methyl}ethanesulfonamide]	1.5 nM
C[C@]12Cc3cnn(-c4ccccc4)c3C=C1CC[C@@H]2CN(CCc1ccccn1)S(=O)(=O)Cc1cccnc1 [Example 140, N-{[(4αR,5S)-4α-methyl-1-phenyl-1,4,4α,5,6,7-hexahydrocyclopenta[f]indazol-5-yl]methyl}-1-pyridin-3-yl-N-(2-pyridin-2-ylethyl)methanesulfonamide]	4.1 nM
C[C@]12Cc3cnn(-c4ccccc4)c3C=C1CC[C@@H]2CN(CCc1ccccc1O)S(=O)(=O)Cc1cccnc1 [Example 141, N-[2-(2-hydroxyphenyl)ethyl]-N-{[(4αR,5S)-4α-methyl-1-phenyl-1,4,4α,5,6,7-hexahydrocyclopenta[f]indazol-5-yl]methyl}-1-pyridin-3-ylmethanesulfonamide]	1.1 nM
C[C@]12Cc3cnn(-c4ccc(F)cc4)c3C=C1CC[C@@H]2CN(CC(O)c1ccccn1)S(=O)(=O)CC(F)(F)F (stereo partly drawn) [Example 142, 2,2,2-trifluoro-N-{[(4αR,5S)-1-(4-fluorophenyl)-4α-methyl-1,4,4α,5,6,7-hexahydrocyclopenta[f]indazol-5-yl]methyl}-N-(2-hydroxy-2-pyridin-2-ylethyl)ethanesulfonamide]	0.9 nM
C[C@]12Cc3cnn(-c4ccc(F)cc4)c3C=C1CC[C@@H]2CN(CC(O)c1cccnc1)S(=O)(=O)CC(F)(F)F (stereo partly drawn) [Example 143, 2,2,2-trifluoro-N-{[(4αR,5S)-1-(4-fluorophenyl)-4α-methyl-1,4,4α,5,6,7-hexahydrocyclopenta[f]indazol-5-yl]methyl}-N-(2-hydroxy-2-pyridin-3-ylethyl)ethanesulfonamide]	13.3 nM
C[C@]12Cc3cnn(-c4ccc(F)cc4)c3C=C1CC[C@@H]2CN(CC(O)c1ccncc1)S(=O)(=O)CC(F)(F)F (stereo partly drawn) [Example 144, 2,2,2-trifluoro-N-{[(4αR,5S)-1-(4-fluorophenyl)-4α-methyl-1,4,4α,5,6,7-hexahydrocyclopenta[f]indazol-5-yl]methyl}-N-(2-hydroxy-2-pyridin-4-ylethyl)ethanesulfonamide]	0.9 nM
C[C@]12Cc3cnn(-c4ccc(F)cc4)c3C=C1CC[C@@H]2CN(CC(OS(=O)(=O)CC(F)(F)F)c1ccccn1)S(=O)(=O)CC(F)(F)F (stereo partly drawn) [Example 145, 2-{{[(4αR,5S)-1-(4-fluorophenyl)-4α-methyl-1,4,4α,5,6,7-hexahydrocyclopenta[f]indazol-5-yl]methyl}[(2,2,2-trifluoroethyl)sulfonyl]amino}-1-pyridin-2-ylethyl 2,2,2-trifluoroethanesulfonate]	1 nM
CC(CN(C[C@H]1CCC2=Cc3c(cnn3-c3ccc(F)cc3)C[C@@]21C)S(=O)(=O)CC(F)(F)F)c1cccnc1 (stereo partly drawn) [Example 146, 2,2,2-trifluoro-N-{[(4αR,5S)-1-(4-fluorophenyl)-4α-methyl-1,4,4α,5,6,7-hexahydrocyclopenta[f]indazol-5-yl]methyl}-N-(2-pyridin-3-ylpropyl)ethanesulfonamide]	0.8 nM
C[C@]12Cc3cnn(-c4ccc(F)cc4)c3C=C1CC[C@@H]2CN(CCC(N)C(F)(F)F)S(=O)(=O)CC(F)(F)F (stereo partly drawn) [Example 147, N-(3-amino-4,4,4-trifluorobutyl)-2,2,2-trifluoro-N-{[(4aR,5S)-1-(4-fluorophenyl)-4α-methyl-1,4,4α,5,6,7-hexahydrocyclopenta[f]indazol-5-yl]methyl}ethanesulfonamide]	3.2 nM
CCCS(=O)(=O)N(CC(O)C(F)(F)F)C[C@H]1CCC2=Cc3c(cnn3-c3ccc(F)cc3)C[C@@]21C (stereo partly drawn) [Example 148, N-{[(4αR,5S)-1-(4-fluorophenyl)-4α-methyl-1,4,4α,5,6,7-hexahydrocyclopenta[f]indazol-5-yl]methyl}-N-(3,3,3-trifluoro-2-hydroxypropyl)propane-1-sulfonamide]	1.6 nM
C[C@]12Cc3cnn(-c4ccc(F)cc4)c3C=C1CC[C@@H]2CN(CC(O)C(F)(F)F)S(=O)(=O)Cc1cccnc1 (stereo partly drawn) [Example 149, N-{[(4αR,5S)-1-(4-fluorophenyl)-4α-methyl-1,4,4α,5,6,7-hexahydrocyclopenta[f]indazol-5-yl]methyl}-1-pyridin-3-yl-N-(3,3,3-trifluoro-2-hydroxypropyl)methanesulfonamide]	1.8 nM
Cn1cc(S(=O)(=O)N(CCc2ccccn2)C[C@H]2CCC3=Cc4c(cnn4-c4ccc(F)cc4)C[C@@]32C)c(C(F)(F)F)n1 [Example 150, N-{[(4αR,5S)-1-(4-fluorophenyl)-4α-methyl-1,4,4α,5,6,7-hexahydrocyclopenta[f]indazol-5-yl]methyl}-1-methyl-N-(2-pyridin-2-ylethyl)-3-(trifluoromethyl)-1H-pyrazole-4-sulfonamide]	1.5 nM
CCCS(=O)(=O)N(CCc1ccccn1)C[C@H]1CCC2=Cc3c(cnn3-c3ccc(F)cc3)C[C@@]21C [Example 151, N-{[(4αR,5S)-1-(4-fluorophenyl)-4α-methyl-1,4,4α,5,6,7-hexahydrocyclopenta[f]indazol-5-yl]methyl}-N-(2-pyridin-2-ylethyl)propane-1-sulfonamide]	1.3 nM
C[C@]12Cc3cnn(-c4ccc(F)cc4)c3C=C1CC[C@@H]2CN(CCc1ccccn1)S(=O)(=O)CCN1C(=O)c2ccccc2C1=O [Example 152, 2-(1,3-dioxo-1,3-dihydro-2H-isoindol-2-yl)-N-{[(4αR,5S)-1-(4-fluorophenyl)-4α-methyl-1,4,4α,5,6,7-hexahydrocyclopenta[f]indazol-5-yl]methyl}-N-(2-pyridin-2-ylethyl)ethanesulfonamide]	1.6 nM
C[C@]12Cc3cnn(-c4ccc(F)cc4)c3C=C1CC[C@@H]2CN(CCc1ccccn1)S(=O)(=O)Cc1ccccc1C(F)(F)F [Example 153, N-{[(4αR,5S)-1-(4-fluorophenyl)-4α-methyl-1,4,4α,5,6,7-hexahydrocyclopenta[f]indazol-5-yl]methyl}-N-(2-pyridin-2-ylethyl)-1-[2-(trifluoromethyl)phenyl]methanesulfonamide]	1.2 nM
